Like-named read-outs stand apart in the source and are kept apart here.
Test system: hiPSC-CMs (iCell-Cardiomyocytes^2)
How it was run: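 Monolayers of hiPSC-CMs on fibronectin-coated MEA plates, 50 K/well, kept at 37°C, 5% CO2; compounds added in 0.1% final DMSO after 5-min baseline. Field potential and impedance parameters expressed as mean ± SD percent change from baseline; arrhythmic events noted; cytotoxicity fluorescence normalized to DMSO, Kruskal-Wallis.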

C#Cc1cccc(Nc2ncnc3cc(OCCOC)c(OCCOC)cc23)c1 [Erlotinib]
BR (beat rate) % change from baseline (0.3 µM, 2h): 3±3% | Beating below threshold, number of observations/total well numbers (0.3 µM, 2h): 0/5 | Cessation of beating, number of observations/total well numbers (0.3 µM, 2h): 0/5 | EAD, number of observations/total well numbers (0.3 µM, 2h): 0/5 | FPD (field-potential duration), % change from baseline (0.3 µM, 2h): 0.6±0.9% | FPDc (field-potential duration corrected by beat-rate), % change from baseline (0.3 µM, 2h): 1.6±1.1% | Flat T-wave-like, number of observations/total well numbers (0.3 µM, 2h): 0/5 | BR (beat rate) % change from baseline (0.3 µM, 24h): -1±5% | Beating below threshold, number of observations/total well numbers (0.3 µM, 24h): 0/5 | Cessation of beating, number of observations/total well numbers (0.3 µM, 24h): 0/5 | EAD, number of observations/total well numbers (0.3 µM, 24h): 0/5 | FPD (field-potential duration), % change from baseline (0.3 µM, 24h): 7.8±3.3% | FPDc (field-potential duration corrected by beat-rate), % change from baseline (0.3 µM, 24h): 7.4±1.9% | Flat T-wave-like, number of observations/total well numbers (0.3 µM, 24h): 0/5 | BR (beat rate) % change from baseline (0.3 µM, 48h): -12±1% | Beating below threshold, number of observations/total well numbers (0.3 µM, 48h): 0/5 | Cessation of beating, number of observations/total well numbers (0.3 µM, 48h): 0/5 | EAD, number of observations/total well numbers (0.3 µM, 48h): 0/5 | FPD (field-potential duration), % change from baseline (0.3 µM, 48h): 16.2±1.3% | FPDc (field-potential duration corrected by beat-rate), % change from baseline (0.3 µM, 48h): 11.5±0.7% | Flat T-wave-like, number of observations/total well numbers (0.3 µM, 48h): 0/5 | BR (beat rate) % change from baseline (0.3 µM, 72h): -8±2% | Beating below threshold, number of observations/total well numbers (0.3 µM, 72h): 0/5 | Cessation of beating, number of observations/total well numbers (0.3 µM, 72h): 0/5 | EAD, number of observations/total well numbers (0.3 µM, 72h): 0/5 | FPD (field-potential duration), % change from baseline (0.3 µM, 72h): 14.6±3.1% | FPDc (field-potential duration corrected by beat-rate), % change from baseline (0.3 µM, 72h): 11.4±2.8% | Flat T-wave-like, number of observations/total well numbers (0.3 µM, 72h): 0/5 | BR (beat rate) % change from baseline (0.3 µM, 96h): -14±1% | Beating below threshold, number of observations/total well numbers (0.3 µM, 96h): 0/5 | Cessation of beating, number of observations/total well numbers (0.3 µM, 96h): 0/5 | EAD, number of observations/total well numbers (0.3 µM, 96h): 0/5 | FPD (field-potential duration), % change from baseline (0.3 µM, 96h): 21.2±1.9% | FPDc (field-potential duration corrected by beat-rate), % change from baseline (0.3 µM, 96h): 15.1±1.6% | Flat T-wave-like, number of observations/total well numbers (0.3 µM, 96h): 0/5 | BR (beat rate) % change from baseline (1 µM, 2h): 1±1% | Beating below threshold, number of observations/total well numbers (1 µM, 2h): 0/5 | Cessation of beating, number of observations/total well numbers (1 µM, 2h): 0/5 | EAD, number of observations/total well numbers (1 µM, 2h): 0/5 | FPD (field-potential duration), % change from baseline (1 µM, 2h): 3.4±1% | FPDc (field-potential duration corrected by beat-rate), % change from baseline (1 µM, 2h): 3.8±0.8% | Flat T-wave-like, number of observations/total well numbers (1 µM, 2h): 0/5 | BR (beat rate) % change from baseline (1 µM, 24h): 0±5% | Beating below threshold, number of observations/total well numbers (1 µM, 24h): 0/5 | Cessation of beating, number of observations/total well numbers (1 µM, 24h): 0/5 | EAD, number of observations/total well numbers (1 µM, 24h): 0/5 | FPD (field-potential duration), % change from baseline (1 µM, 24h): 5.5±5.8% | FPDc (field-potential duration corrected by beat-rate), % change from baseline (1 µM, 24h): 5.6±4% | Flat T-wave-like, number of observations/total well numbers (1 µM, 24h): 0/5 | BR (beat rate) % change from baseline (1 µM, 48h): -13±3% | Beating below threshold, number of observations/total well numbers (1 µM, 48h): 0/5 | Cessation of beating, number of observations/total well numbers (1 µM, 48h): 0/5 | EAD, number of observations/total well numbers (1 µM, 48h): 0/5 | FPD (field-potential duration), % change from baseline (1 µM, 48h): 16.6±3.6% | FPDc (field-potential duration corrected by beat-rate), % change from baseline (1 µM, 48h): 11.3±2.2% | Flat T-wave-like, number of observations/total well numbers (1 µM, 48h): 0/5 | BR (beat rate) % change from baseline (1 µM, 72h): -9±2% | Beating below threshold, number of observations/total well numbers (1 µM, 72h): 0/5 | Cessation of beating, number of observations/total well numbers (1 µM, 72h): 0/5 | EAD, number of observations/total well numbers (1 µM, 72h): 0/5 | FPD (field-potential duration), % change from baseline (1 µM, 72h): 14.7±3.9% | FPDc (field-potential duration corrected by beat-rate), % change from baseline (1 µM, 72h): 11±3.3% | Flat T-wave-like, number of observations/total well numbers (1 µM, 72h): 0/5 | BR (beat rate) % change from baseline (1 µM, 96h): -16±2% | Beating below threshold, number of observations/total well numbers (1 µM, 96h): 0/5 | Cessation of beating, number of observations/total well numbers (1 µM, 96h): 0/5 | EAD, number of observations/total well numbers (1 µM, 96h): 0/5 | FPD (field-potential duration), % change from baseline (1 µM, 96h): 22.4±3.5% | FPDc (field-potential duration corrected by beat-rate), % change from baseline (1 µM, 96h): 15.1±2.5% | Flat T-wave-like, number of observations/total well numbers (1 µM, 96h): 0/5 | BR (beat rate) % change from baseline (3 µM, 72h): -10±2% | Beating below threshold, number of observations/total well numbers (3 µM, 72h): 0/5 | Cessation of beating, number of observations/total well numbers (3 µM, 72h): 0/5 | EAD, number of observations/total well numbers (3 µM, 72h): 0/5 | FPD (field-potential duration), % change from baseline (3 µM, 72h): 10.9±3.3% | FPDc (field-potential duration corrected by beat-rate), % change from baseline (3 µM, 72h): 7.1±2.8% | Flat T-wave-like, number of observations/total well numbers (3 µM, 72h): 0/5 | BR (beat rate) % change from baseline (3 µM, 96h): -18±2% | Beating below threshold, number of observations/total well numbers (3 µM, 96h): 0/5 | Cessation of beating, number of observations/total well numbers (3 µM, 96h): 0/5 | EAD, number of observations/total well numbers (3 µM, 96h): 0/5 | FPD (field-potential duration), % change from baseline (3 µM, 96h): 18.9±1.9% | FPDc (field-potential duration corrected by beat-rate), % change from baseline (3 µM, 96h): 11.7±1.1% | Flat T-wave-like, number of observations/total well numbers (3 µM, 96h): 0/5 | BR (beat rate) % change from baseline (3 µM, 2h): 1±2% | Beating below threshold, number of observations/total well numbers (3 µM, 2h): 0/5 | Cessation of beating, number of observations/total well numbers (3 µM, 2h): 0/5 | EAD, number of observations/total well numbers (3 µM, 2h): 0/5 | FPD (field-potential duration), % change from baseline (3 µM, 2h): 2±3% | FPDc (field-potential duration corrected by beat-rate), % change from baseline (3 µM, 2h): 2.4±2.4% | Flat T-wave-like, number of observations/total well numbers (3 µM, 2h): 0/5 | BR (beat rate) % change from baseline (3 µM, 24h): 2±3% | Beating below threshold, number of observations/total well numbers (3 µM, 24h): 0/5 | Cessation of beating, number of observations/total well numbers (3 µM, 24h): 0/5 | EAD, number of observations/total well numbers (3 µM, 24h): 0/5 | FPD (field-potential duration), % change from baseline (3 µM, 24h): 0.1±4% | FPDc (field-potential duration corrected by beat-rate), % change from baseline (3 µM, 24h): 0.7±3% | Flat T-wave-like, number of observations/total well numbers (3 µM, 24h): 0/5 | BR (beat rate) % change from baseline (3 µM, 48h): -13±3% | Beating below threshold, number of observations/total well numbers (3 µM, 48h): 0/5 | Cessation of beating, number of observations/total well numbers (3 µM, 48h): 0/5 | EAD, number of observations/total well numbers (3 µM, 48h): 0/5 | FPD (field-potential duration), % change from baseline (3 µM, 48h): 11±2.4% | FPDc (field-potential duration corrected by beat-rate), % change from baseline (3 µM, 48h): 5.9±1.1% | Flat T-wave-like, number of observations/total well numbers (3 µM, 48h): 0/5 | wells with flat T-wave (10 µM (highest concentration)): One well on 5 | BR (beat rate) % change from baseline (10 µM, 2h): 1±1% | Beating below threshold, number of observations/total well numbers (10 µM, 2h): 0/5 | Cessation of beating, number of observations/total well numbers (10 µM, 2h): 0/5 | EAD, number of observations/total well numbers (10 µM, 2h): 0/5 | FPD (field-potential duration), % change from baseline (10 µM, 2h): 3.5±0.9% | FPDc (field-potential duration corrected by beat-rate), % change from baseline (10 µM, 2h): 3.9±1.1% | Flat T-wave-like, number of observations/total well numbers (10 µM, 2h): 0/5 | BR (beat rate) % change from baseline (10 µM, 24h): -1±7% | Beating below threshold, number of observations/total well numbers (10 µM, 24h): 0/5 | Cessation of beating, number of observations/total well numbers (10 µM, 24h): 0/5 | EAD, number of observations/total well numbers (10 µM, 24h): 0/5 | FPD (field-potential duration), % change from baseline (10 µM, 24h): 7.2±5.8% | FPDc (field-potential duration corrected by beat-rate), % change from baseline (10 µM, 24h): 6.3±4.1% | Flat T-wave-like, number of observations/total well numbers (10 µM, 24h): 1/5 | BR (beat rate) % change from baseline (10 µM, 48h): -15±4% | Beating below threshold, number of observations/total well numbers (10 µM, 48h): 0/5 | Cessation of beating, number of observations/total well numbers (10 µM, 48h): 0/5 | EAD, number of observations/total well numbers (10 µM, 48h): 0/5 | FPD (field-potential duration), % change from baseline (10 µM, 48h): 15.4±2.7% | FPDc (field-potential duration corrected by beat-rate), % change from baseline (10 µM, 48h): 8.7±1.6% | Flat T-wave-like, number of observations/total well numbers (10 µM, 48h): 1/5 | BR (beat rate) % change from baseline (10 µM, 72h): -13±4% | Beating below threshold, number of observations/total well numbers (10 µM, 72h): 0/5 | Cessation of beating, number of observations/total well numbers (10 µM, 72h): 0/5 | EAD, number of observations/total well numbers (10 µM, 72h): 0/5 | FPD (field-potential duration), % change from baseline (10 µM, 72h): 16.4±6.7% | FPDc (field-potential duration corrected by beat-rate), % change from baseline (10 µM, 72h): 10.6±6% | Flat T-wave-like, number of observations/total well numbers (10 µM, 72h): 1/5 | BR (beat rate) % change from baseline (10 µM, 96h): -19±2% | Beating below threshold, number of observations/total well numbers (10 µM, 96h): 0/5 | Cessation of beating, number of observations/total well numbers (10 µM, 96h): 0/5 | EAD, number of observations/total well numbers (10 µM, 96h): 0/5 | FPD (field-potential duration), % change from baseline (10 µM, 96h): 25±8.1% | FPDc (field-potential duration corrected by beat-rate), % change from baseline (10 µM, 96h): 16±6.6% | Flat T-wave-like, number of observations/total well numbers (10 µM, 96h): 1/5 | arrhythmic-like events (all concentrations tested): no arrhythmic-like events were observed | changes in BR (all concentrations tested): nor significant changes in BR | prolongation of FPD / FPDc (all concentrations tested): did not observe any physiologically relevant prolongation in FPD and FPDc | effect on hiPSC-CMs electrophysiology or cytotoxicity (up to ∼ three times the estimated fCmax): did not detect any significant effect on hiPSC-CMs electrophysiology or cytotoxicity

From paper PMC10364322, “Evaluation of chronic drug-induced electrophysiological and cytotoxic effects using human-induced pluripotent stem cell-derived cardiomyocytes (hiPSC-CMs)” (Frontiers in Pharmacology, 2023)
